Key:
lambsquarters [1] = test: Test B preemergence/postemergence greenhouse plant response rating 0 to 10; format: in vivo, Chenopodium album; details: 0 to 10 scale
Method in brief: (§1)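 Both application timings were run together: seeds got compound preemergence, and established seedlings (two to eighteen cm) got it postemergence. Non-phytotoxic solvent carried the chemical. Ratings are visual, versus controls, at twelve to sixteen days.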

giant foxtail = test: as above; format: in vivo, Setaria faberii; details: 0 to 10 scale
Method in brief: as §1

purple nutsedge = test: as above; format: in vivo, Cyperus rotundus; details: 0 to 10 scale
Method in brief: as §1

cheatgrass = test: as above; format: in vivo, Bromus secalinus; details: 0 to 10 scale
Method in brief: as §1

pigweed = test: Test C preemergence/postemergence greenhouse plant response rating 0 to 100; format: in vivo, Amaranthusretroflexus; details: PREEMERGENCE; for Plant response rating Pigweed: 0 to 100 scale
Method in brief: (§2)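 Compounds in non-phytotoxic solvent applied preemergence to sandy loam one day after planting, postemergence at the 1–4 leaf stage, or to ~2.5 cm floodwater over silt loam.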

barley [2] = test: as above; format: in vivo, Hordeum vulgare; details: PREEMERGENCE; for Plant response rating Barley Igri: 0 to 100 scale
Method in brief: as §2

crabgrass = test: Test B preemergence/postemergence greenhouse plant response rating 0 to 10; format: in vivo, Digitaria spp.; details: 0 to 10 scale
Method in brief: as §1

ryegrass = test: Test C preemergence/postemergence greenhouse plant response rating 0 to 100; format: in vivo, Lolium multiflorum; details: PREEMERGENCE; for Plant response rating Ryegrass: 0 to 100 scale
Method in brief: as §2

soybean [3] = test: as above; format: in vivo, Glycine max; details: PREEMERGENCE
Method in brief: as §2

barley [4] = test: Test B preemergence/postemergence greenhouse plant response rating 0 to 10; format: in vivo, Hordeum vulgare; details: 0 to 10 scale
Method in brief: as §1

rape = test: as above; format: in vivo, Brassica napus; details: 0 to 10 scale
Method in brief: as §1

chickweed = test: Test C preemergence/postemergence greenhouse plant response rating 0 to 100; format: in vivo, Stellaria media; details: PREEMERGENCE; for Plant response rating, Chickweed: 0 to 100 scale
Method in brief: as §2

soybean [5] = test: Test B preemergence/postemergence greenhouse plant response rating 0 to 10; format: in vivo, Glycine max; details: 0 to 10 scale
Method in brief: as §1

velvetleaf = test: as above; format: in vivo, Abutilon theophrasti; details: 0 to 10 scale
Method in brief: as §1

lambsquarters [6] = test: Test C preemergence/postemergence greenhouse plant response rating 0 to 100; format: in vivo, Chenopodium album; details: PREEMERGENCE; for Plant response rating Lambsquarters: 0 to 100 scale
Method in brief: as §2

wild buckwheat = test: as above; format: in vivo, Polygonum convolvulus; details: PREEMERGENCE
Method in brief: as §2

blackgrass = test: Test B preemergence/postemergence greenhouse plant response rating 0 to 10; format: in vivo, Alopecurus myosuroides; details: 0 to 10 scale
Method in brief: as §1

sugar beet = test: Test C preemergence/postemergence greenhouse plant response rating 0 to 100; format: in vivo, Beta vulgaris; details: PREEMERGENCE
Method in brief: as §2

CCCN1C(=O)COc2cc(F)c(-c3nn4c(c3Br)CCCC4)cc21 [Compound 63]
Plant response rating, Lambsquarter (lambsquarters [1]; POSTEMERGENCE, Rate 10 g/ha): 9
Plant response rating, Lambsquarter (lambsquarters [1]; POSTEMERGENCE, Rate 50 g/ha): 10
Plant response rating, Lambsquarter (lambsquarters [1]; PREEMERGENCE, Rate 50 g/ha): 10
Plant response rating, Giant foxtail (giant foxtail; POSTEMERGENCE, Rate 10 g/ha): 3
Plant response rating, Giant foxtail (giant foxtail; POSTEMERGENCE, Rate 50 g/ha): 3
Plant response rating, Giant foxtail (giant foxtail; PREEMERGENCE, Rate 10 g/ha): 0
Plant response rating, Giant foxtail (giant foxtail; PREEMERGENCE, Rate 50 g/ha): 1
Plant response rating, Nutsedge (purple nutsedge; POSTEMERGENCE, Rate 10 g/ha): 1
Plant response rating, Nutsedge (purple nutsedge; POSTEMERGENCE, Rate 50 g/ha): 6
Plant response rating, Nutsedge (purple nutsedge; PREEMERGENCE, Rate 50 g/ha): 0
Plant response rating, Cheatgrass (cheatgrass; POSTEMERGENCE, Rate 10 g/ha): 4
Plant response rating, Cheatgrass (cheatgrass; POSTEMERGENCE, Rate 50 g/ha): 4
Plant response rating, Cheatgrass (cheatgrass; PREEMERGENCE, Rate 10 g/ha): 2
Plant response rating, Cheatgrass (cheatgrass; PREEMERGENCE, Rate 50 g/ha): 2
Plant response rating Pigweed (pigweed; 62 g/ha): 100
Plant response rating Pigweed (pigweed; 250 g/ha): 100
Plant response rating (0 to 100), Pigweed (pigweed; Rate 4 g/ha): 0
Plant response rating (0 to 100), Pigweed (pigweed; Rate 16 g/ha): 100
Plant response rating Barley Igri (barley [2]; 62 g/ha): 10
Plant response rating Barley Igri (barley [2]; 250 g/ha): 40
Plant response rating (0 to 100), Barley Igri (barley [2]; Rate 4 g/ha): 0
Plant response rating (0 to 100), Barley Igri (barley [2]; Rate 16 g/ha): 0
Plant response rating, Crabgrass (crabgrass; POSTEMERGENCE, Rate 10 g/ha): 3
Plant response rating, Crabgrass (crabgrass; POSTEMERGENCE, Rate 50 g/ha): 3
Plant response rating, Crabgrass (crabgrass; PREEMERGENCE, Rate 10 g/ha): 0
Plant response rating, Crabgrass (crabgrass; PREEMERGENCE, Rate 50 g/ha): 0
Plant response rating Ryegrass (ryegrass; 62 g/ha): 40
Plant response rating Ryegrass (ryegrass; 250 g/ha): 80
Plant response rating (0 to 100), Ryegrass (ryegrass; Rate 4 g/ha): 0
Plant response rating (0 to 100), Ryegrass (ryegrass; Rate 16 g/ha): 0
Plant response rating, Soybean (soybean [3]; 250 g/ha, 0 to 100 scale): 20
Plant response rating (0 to 100), Soybean (soybean [3]; Rate 4 g/ha): 0
Plant response rating (0 to 100), Soybean (soybean [3]; Rate 16 g/ha): 0
Plant response rating, Barley (barley [4]; POSTEMERGENCE, Rate 10 g/ha): 4
Plant response rating, Barley (barley [4]; POSTEMERGENCE, Rate 50 g/ha): 5
Plant response rating, Barley (barley [4]; PREEMERGENCE, Rate 10 g/ha): 0
Plant response rating, Barley (barley [4]; PREEMERGENCE, Rate 50 g/ha): 0
Plant response rating, Rape (rape; POSTEMERGENCE, Rate 10 g/ha): 9
Plant response rating, Rape (rape; POSTEMERGENCE, Rate 50 g/ha): 9
Plant response rating, Rape (rape; PREEMERGENCE, Rate 50 g/ha): 6
Plant response rating, Chickweed (chickweed; 62 g/ha): 30
Plant response rating, Chickweed (chickweed; 250 g/ha): 50
Plant response rating (0 to 100), Chickweed (chickweed; Rate 4 g/ha): 10
Plant response rating (0 to 100), Chickweed (chickweed; Rate 16 g/ha): 20
Plant response rating, Soybean (soybean [5]; POSTEMERGENCE, Rate 10 g/ha): 6
Plant response rating, Soybean (soybean [5]; POSTEMERGENCE, Rate 50 g/ha): 5
Plant response rating, Soybean (soybean [5]; PREEMERGENCE, Rate 50 g/ha): 0
Plant response rating, Velvetleaf (velvetleaf; POSTEMERGENCE, Rate 10 g/ha): 8
Plant response rating, Velvetleaf (velvetleaf; POSTEMERGENCE, Rate 50 g/ha): 10
Plant response rating, Velvetleaf (velvetleaf; PREEMERGENCE, Rate 50 g/ha): 7
Plant response rating Lambsquarters (lambsquarters [6]; 62 g/ha): 95
Plant response rating Lambsquarters (lambsquarters [6]; 250 g/ha): 100
Plant response rating (0 to 100), Lambsquarters (lambsquarters [6]; Rate 4 g/ha): 10
Plant response rating (0 to 100), Lambsquarters (lambsquarters [6]; Rate 16 g/ha): 20
Plant response rating, Wild buckwheat (wild buckwheat; 250 g/ha, 0 to 100 scale): 100
Plant response rating (0 to 100), Wild buckwheat (wild buckwheat; Rate 4 g/ha): 0
Plant response rating (0 to 100), Wild buckwheat (wild buckwheat; Rate 16 g/ha): 50
Plant response rating, Blackgrass (blackgrass; POSTEMERGENCE, Rate 10 g/ha): 4
Plant response rating, Blackgrass (blackgrass; POSTEMERGENCE, Rate 50 g/ha): 4
Plant response rating, Blackgrass (blackgrass; PREEMERGENCE, Rate 10 g/ha): 0
Plant response rating, Blackgrass (blackgrass; PREEMERGENCE, Rate 50 g/ha): 3
Plant response rating, Sugar beet (sugar beet; 250 g/ha, 0 to 100 scale): 100
Plant response rating (0 to 100), Sugar beet (sugar beet; Rate 4 g/ha): 10
Plant response rating (0 to 100), Sugar beet (sugar beet; Rate 16 g/ha): 100

— US6358885B1, “Substituted phenylheterocyclic herbicides” (Mississippi State University, priority 1992, dated 2002)
